Earlier results in US5032506A, “Color control system” (priority 1986, dated 1991).

Tested on: diaphorase
Details: chromogen substrates of diaphorase; literature values (Gella et al. 1981); read-out: Km for the tetrazolium salts

Compound	Km
O=[N+]([O-])c1ccc(-[n+]2nc(-c3ccccc3)nn2-c2ccc(I)cc2)cc1 [INT]	870 µM
COc1cc(-c2ccc(-n3nc(-c4ccccc4)n[n+]3-c3ccc([N+](=O)[O-])cc3)c(OC)c2)ccc1-n1nc(-c2ccccc2)n[n+]1-c1ccc([N+](=O)[O-])cc1 [NBT, nitro blue tetrazolium chloride]	2000 µM
